Data from patent US20100210533A1, “USE OF UROCORTIN AND CORTICOTROPIN-RELEASING FACTOR AS THERAPEUTIC AGENTS” (priority 2007, published 2010).
No end group written: not given here.

What was measured:
[1] = system: HCMV strain AD169; experiment: HCMV plaque assay in MRC-5 cells; details: for inhibition of HCMV plaque formation as compared to the virus control experiment: 10 micrograms per ml, 7-10 days
[2] = system: spleen cells; experiment: Th1/Th2 cytokine profiling assay (Ovalbumin-restimulated spleen cells, CBA kit); format: cell-based; details: 10 micrograms per ml; spleen cells of Ovalbumin-immunized Balb/c mice, restimulated with Ovalbumin 10 micrograms/ml; 72 hours
[3] = system: hepatitis B virus (HBV) ayw strain; experiment: HBV experimental assay system, HepG2-2.2.15, TaqMan PCR of secreted HBV DNA; format: cell-based; details: 10 micrograms per ml, six days, HBV DNA by TaqMan PCR
Excerpt: HepG2-2.2.15 is a stable cell line containing the hepatitis B virus (HBV) ayw strain genome (ATCC Cat. No. CRL-11997). Antiviral compounds blocking any late step of viral replication such as transcription, translation, pregenome encapsidation, reverse transcription, particle assembly and release can be identified and characterized using this cell line. In this assay, an active compound will reduce the production of secreted HBV from cells, measured by utilizing real time quantitative PCR (TaqMan) assay to directly and accurately measure HBV DNA copies.
HepG2-2.2.15 cells were plated in 96-well microtiter plates. After 16-24 hours the confluent monolayer of HepG2-2.2.15 cells was washed and the medium was replaced with complete medium containing test peptides—10 micrograms per ml—in duplicate. […] Six days following the initial administration of the peptides, the cell culture supernatants was collected, treated with pronase and DNAse and then used in a real-time quantitative TaqMan PCR assay. The PCR-amplified HBV DNA was detected in real-time by monitoring increases in fluorescence signals that result from the exonucleolytic degradation of a quenched fluorescence probe molecule that hybridizes to the mplified HBV DNA. […] Antiviral activity was calculated from the reduction in HBV DNA levels (% virus control). […]

[4] = system: RAW 264.7 cells; experiment: Phagocytosis assay (Fluorescein-labeled Escherichia coli, flow cytometry); format: cell-based, mouse; details: 10 micrograms per ml, 30 min preincubation, 60 min ingestion
[5] = system: Primary Human endothelial cells (HUVEC); experiment: Endothelial cell migration assay; format: cell-based; details: 10 micrograms per ml, 22 hours
[6] = system: HIV-1IIIB; experiment: HIV-1 antiviral assay in CEM-SS cells (MTS readout); format: cell-based

Row | Compound | antiviral activity of positive control compound (HCMV) ([1]; positive control, HCMV AD169) | IFNγ spleen cells; TH1 response (% of control) [2] | IL-2 spleen cells (% of control) [2] | IL-4 spleen cells; TH2 response (% of control) [2] | IL-5 spleen cells; TH2 response (% of control) [2] | TNF-a spleen cells; TH1 response (% of control) [2] | inhibition of HCMV plaque formation as compared to the virus control experiment [1] | inhibition of HBV replication as compared to the virus control infection [3] [%] | effect (increase) on the phagocytic activity of murine macrophages [4] | inhibition of the tube formation of human endothelial cells (results given under Example 14, Endothelial Cell Migration Assay) [5] | antiviral activity of positive control compounds (HIV-1) [6]
1 | Nc1nc(O)c2ncn(COC(CO)CO)c2n1 [Ganciclovir, reference compound] | expected levels of antiviral activity |  |  |  |  |  |  |  |  |  | 
2 | Ser-Glu-Glu-Pro-Pro-Ile-Ser-Leu-Asp-Leu-Thr-Phe-His-Leu-Leu-Arg-Glu-Val-Leu-Glu-Met-Ala-Arg-Ala-Glu-Gln-Leu-Ala-Gln-Gln-Ala-His-Ser-Asn- Arg-Lys-Leu-Met-Glu-Ile-Ile-NH2 (SEEPPISLDLTFHLLREVLEMARAEQLAQQAHSNRKLMEII-NH2) [Peptide 2, Corticotropin-Releasing Factor; commercially available known peptide] |  | 144.1 % of control | 166.5 % of control | 178.1 % of control | 7.0 % of control | 138.1 % of control | did not inhibit | 57.2 | 34.3% | did not inhibit | 
3 | Cc1cn([C@H]2C[C@H](N=[N+]=[N-])[C@@H](CO)O2)c(=O)[nH]c1=O [AZT] |  |  |  |  |  |  |  |  |  |  | expected levels of antiviral activity
4 | Asp-Asn-Pro-Ser-Leu-Ser-Ile-Asp-Leu-Thr-Phe-His-Leu-Leu-Arg-Thr-Leu-Leu-Glu-Leu-Ala-Arg-Thr-Gln-Ser-Gln-Arg-Glu-Arg-Ala-Glu-Gln-Asn-Arg- Ile-Ile-Phe-Asp-Ser-Val-NH2 (DNPSLSIDLTFHLLRTLLELARTQSQRERAEQNRIIFDSV-NH2) [Peptide 1, Urocortin; commercially available known peptide] |  | 29.0 % of control | 168.1 % of control | 111.6 % of control | 68.0 % of control | 84.8 % of control | did not inhibit | 63.0 | no inhibitory or activating effects | 39% | 
5 | CC(C)(C)NC(=O)[C@@H]1CN(Cc2cccnc2)CCN1C[C@@H](O)C[C@@H](Cc1ccccc1)C(=O)N[C@H]1c2ccccc2C[C@H]1O [indinavir] |  |  |  |  |  |  |  |  |  |  | expected levels of antiviral activity
